According to the supplement of paper PMC10307832:

Columns and labels:
Assay in all cases: relative viability (nuclei count vs DMSO), 5 days (fraction); higher = more cells survive
RERF-LC-KJ = system: RERF-LC-KJ
In short: (§1)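 Medians of duplicate plates are given as relative viability. That measure is the nuclei count in treated wells divided by the count in vehicle wells. Counts were taken on 4× images of lung cancer cell lines in 1536-well plates, 5 days after pin-tool dosing the day after seeding with one drug alone or a fixed anchor-drug dose plus five library-drug doses (not always all listed) in √10 steps.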

NCI-H520 = system: NCI-H520
In short: as §1

LK-2 = system: LK-2
In short: as §1

SW 1573 = system: SW 1573
In short: as §1

NCI-H1650 = system: NCI-H1650
In short: as §1

HCC-15 = system: HCC-15
In short: as §1

NCI-H1563 = system: NCI-H1563
In short: as §1

NCI-H661 = system: NCI-H661
In short: as §1

HCC-827 = system: HCC-827
In short: as §1

NCI-H2405 = system: NCI-H2405
In short: as §1

PC-14 = system: PC-14
In short: as §1

Structure (SMILES): NC(=O)Nc1cc(-c2cccc(F)c2)sc1C(=O)N[C@H]1CCCNC1 [AZD7762] + CS(=O)(=O)N1CCN(Cc2cc3nc(-c4cccc5[nH]ncc45)nc(N4CCOCC4)c3s2)CC1 [Pictilisib] (partner 1 µM)
- relative viability (RERF-LC-KJ; first compound 0.01 µM): 0.521
- relative viability (RERF-LC-KJ; first compound 0.03162 µM): 0.616
- relative viability (RERF-LC-KJ; first compound 0.1 µM): 0.521
- relative viability (RERF-LC-KJ; first compound 0.3162 µM): 0.6
- relative viability (RERF-LC-KJ; first compound 1 µM): 0.431
- relative viability (NCI-H520; first compound 0.01 µM): 0.328
- relative viability (NCI-H520; first compound 0.03162 µM): 0.28
- relative viability (NCI-H520; first compound 0.1 µM): 0.253
- relative viability (NCI-H520; first compound 0.3162 µM): 0.216
- relative viability (NCI-H520; first compound 1 µM): 0.219
- relative viability (LK-2; first compound 0.01 µM): 0.628
- relative viability (LK-2; first compound 0.03162 µM): 0.485
- relative viability (LK-2; first compound 0.1 µM): 0.482
- relative viability (LK-2; first compound 0.3162 µM): 0.481
- relative viability (LK-2; first compound 1 µM): 0.34
- relative viability (SW 1573; first compound 0.01 µM): 0.569
- relative viability (SW 1573; first compound 0.03162 µM): 0.479
- relative viability (SW 1573; first compound 0.1 µM): 0.554
- relative viability (SW 1573; first compound 0.3162 µM): 0.54
- relative viability (SW 1573; first compound 1 µM): 0.451
- relative viability (NCI-H1650; first compound 0.01 µM): 0.62
- relative viability (NCI-H1650; first compound 0.03162 µM): 0.657
- relative viability (NCI-H1650; first compound 0.1 µM): 0.515
- relative viability (NCI-H1650; first compound 0.3162 µM): 0.391
- relative viability (NCI-H1650; first compound 1 µM): 0.155
- relative viability (HCC-15; first compound 0.01 µM): 0.713
- relative viability (HCC-15; first compound 0.03162 µM): 0.792
- relative viability (HCC-15; first compound 0.1 µM): 0.875
- relative viability (HCC-15; first compound 0.3162 µM): 0.789
- relative viability (HCC-15; first compound 1 µM): 0.824
- relative viability (NCI-H1563; first compound 0.01 µM): 0.648
- relative viability (NCI-H1563; first compound 0.03162 µM): 0.629
- relative viability (NCI-H1563; first compound 0.1 µM): 0.539
- relative viability (NCI-H1563; first compound 0.3162 µM): 0.617
- relative viability (NCI-H1563; first compound 1 µM): 0.623
- relative viability (NCI-H661; first compound 0.01 µM): 0.41
- relative viability (NCI-H661; first compound 0.03162 µM): 0.406
- relative viability (NCI-H661; first compound 0.1 µM): 0.356
- relative viability (NCI-H661; first compound 0.3162 µM): 0.316
- relative viability (NCI-H661; first compound 1 µM): 0.312
- relative viability (HCC-827; first compound 0.01 µM): 1.36
- relative viability (HCC-827; first compound 0.03162 µM): 0.962
- relative viability (HCC-827; first compound 0.1 µM): 1.17
- relative viability (HCC-827; first compound 0.3162 µM): 1.21
- relative viability (HCC-827; first compound 1 µM): 0.682
- relative viability (NCI-H2405; first compound 0.01 µM): 0.457
- relative viability (NCI-H2405; first compound 0.03162 µM): 0.559
- relative viability (NCI-H2405; first compound 0.1 µM): 0.382
- relative viability (NCI-H2405; first compound 0.3162 µM): 0.291
- relative viability (NCI-H2405; first compound 1 µM): 0.22
- relative viability (PC-14; first compound 0.01 µM): 0.763
- relative viability (PC-14; first compound 0.03162 µM): 0.795
- relative viability (PC-14; first compound 0.1 µM): 0.67
- relative viability (PC-14; first compound 0.3162 µM): 0.474
- relative viability (PC-14; first compound 1 µM): 0.309
